Patent publication US20160120894A1, “USE OF ADENOSINE ASPARTATE IN THE DI[…] M[…] INFLAMMATORY-[…] AND ITS REVERSAL” (UNIVERSIDAD NACIONAL AUTÓNOMA DE MÉXICO, priority 2013, published 2016)
“Also recorded” adds a separate entry of the source.

What was measured:
serum cytokine = test: Prevention of CCl4-induced cirrhosis: serum cytokines by Luminex; type: in vivo, rats
Source text: FIGS. 1A to 1C refer to the obtained results for serum cytokine evaluated by Luminex® at 4, 6 and 8 weeks of administration of CCl4 and CCl4+IFC. Concentration (pg/mL)±standard deviation is shown.
(§1) Cirrhosis is a disease chronic degenerative characterized by diffuse fibrosis and regenerative nodules distorting tissue architecture. The diffuse fibrosis is supported by a chronic inflammatory process. During this process, chemokines and cytokines that favor this process are generated. In a model of prevention of cirrhosis by treatment with adenosine aspartate, knowing having an antifibrogenic effect, would allow knowing the effect of this drug during the establishment of cirrhosis for 4, 6 and 8 weeks and its effect on response activation immune and inflammation.
(§2) In this study, four groups of six male rats of 100 g to 110 g were formed; the rats were treated simultaneously under the same doses with CCl4 (25 μl of carbon tetrachloride in vegetable oil) and IFC-305 (50 mg/Kg). All treatments were given three times a week for 4, 6 and 8 weeks; at the moment of sacrifice, of serum and liver were taken.

[1] = test system: cytokines in liver homogenate; test: Prevention of CCl4-induced cirrhosis: cytokines in liver homogenate by Luminex; type: in vivo, rats; conditions: CCl4+IFC-305 50 mg/Kg, 8 weeks
Source text: FIGS. 2A and 2B refer to the results obtained for cytokines in liver homogenate evaluated by Luminex® at 8 weeks of administration of CCl4 and CCl4+IFC-305. Concentration (pg/mL)±standard deviation is shown.
as §1, §2

[2] = test system: Kupffer cells (CD163+/CD11b+); test: Prevention of CCl4-induced cirrhosis: kinetic of Kupffer cells in the liver by flow cytometry; type: in vivo, rats; conditions: CCl4+IFC-305 vs CCl4; 4, 6, 8 and 10 weeks
Procedure: FIG. 5 refers to the kinetic of Kupffer cells (CD163+/CD11b+) in the liver, assessed by flow cytometry at 4, 6, 8 and 10 weeks, administration with CCl4, IFC-305 and CCl4+IFC-305 to same time. % Kupffer cells±standard error.
as §2
FIG. 5 refers to a graphic showing the total number of Kupffer cells quantified with CD163+/CD11b/c+ for 4, 6, 8 and 10 weeks of treatment with CCl4, with an increase during the development of cirrhosis that decreases with the treatment of the compound IFC-305.

serum cytokines = test: Reversal of established CCl4 cirrhosis: serum cytokines by Luminex; type: in vivo, Wistar rats; conditions: cirrhotic rats, IFC-305 50 mg/kg i.p. three times a week vs saline
Procedure: (§3) FIGS. 3A to 3C refer to the obtained results for serum cytokines evaluated by Luminex® in the different experimental groups of cirrhotic animals (Ci) treated with IFC-305 and saline for five and ten weeks (Ci SS 5s, Ci IFC 5s, Ci SS 10s and Ci IFC 10s post-treatment with CCl4). Concentration (pg/mL)±standard deviation is shown.
(§4) 100 g male Wistar rats were used, with free access to food and water. Cirrhosis was induced with 25 μl of CCl4 in vegetable oil three times a week for ten weeks. Once cirrhosis is established, the animals were divided into five groups: group I, treatment with CCl4 is suspended, control animals of cirrhosis are sacrificed, groups II and III is allowed to proceed cirrhosis and received three intraperitoneal injections of saline per week for 5 to 10 weeks, groups IV and V received three intraperitoneal injections of the compound at a dose of 50 mg/kg for 5 to 10 weeks; at the moment of sacrifice, serum and liver samples taken.

[3] = test system: cytokines in liver homogenate; test: Reversal of established CCl4 cirrhosis: cytokines in liver homogenate by Luminex; type: in vivo, Wistar rats; conditions: cirrhotic rats, IFC-305 50 mg/kg i.p.
Procedure: as §3, with “4A” for “3A”, “4D” for “3C”, “for” for “for serum”, “cytokines in liver homogenate” for “cytokines”, “10s,” for “10s”, “10s).” for “10s post-treatment with CCl4).”
as §4

[4] = test system: total macrophages (HIS36+/CD11b+) and inflammatory phenotype Kupffer cells (CD163+/CD11b/c+ (M1)); test: Reversal of established CCl4 cirrhosis: distribution of liver macrophages by flow cytometry; type: in vivo, Wistar rats; conditions: cirrhotic rats, IFC-305 50 mg/kg i.p., five and ten weeks
Procedure: FIGS. 6A and 6B relate to the obtained results regarding the distribution of macrophages. […] Percentage (%) of Kupffer cells with respect to control±standard error.
as §4

Arginase I = test: Reversal of established CCl4 cirrhosis: Western blot of Arginase I in liver homogenate; type: in vivo, Wistar rats; conditions: cirrhotic rats, IFC-305 50 mg/kg i.p., five and ten weeks
Procedure: FIG. 7 refers to Western blot Arginase I. Expression of total protein in liver homogenate in the different experimental groups treated with IFC-305 and saline for five and ten weeks.
as §4

[5] = CCl4+IFC-305 50 mg/Kg three times a week vs CCl4, 4, 6 and 8 weeks

In the case of adenosine aspartate [IFC-305], the “serum IL-1β” value (serum cytokine; [5]) is reported as “decreasing”, the “serum IL-4” value (serum cytokine; [5]) is reported as “decreasing; also recorded: decreased” and the “serum IL-6” value (serum cytokine; CCl4+IFC-305 50 mg/Kg vs CCl4, 4 and 6 weeks) is reported as “decreasing; also recorded: decrease”. For the same substance, the “serum IL-6” value (serum cytokine; CCl4+IFC-305 50 mg/Kg, 8 weeks) was “increase”, the “liver homogenate IL-1β” value [1] was “decreases” and the “liver homogenate IL-4” value [1] was “decreases”. The “liver homogenate IL-6” value [1] was “increase relative to the control”, the “liver homogenate IL-10” value [1] was “decreases” and the “liver homogenate IL-12” value [1] was “increase relative to the control”. The “liver homogenate INF-γ” value [1] was “increase relative to the control”, the “liver homogenate MCP-1” value [1] was “increase relative to the control” and the “liver homogenate IL-6” value ([1]; listed as adenosine aspartate) was “increase”. The “total number of Kupffer cells (CD163+/CD11b/c+) in the liver” value [2] was “decreases”, the “serum IL-4” value (serum cytokines; 5 weeks) was “kept in similar values to controls or less; also recorded: maintained in an equal range to the control or lower” and the “serum IL-6” value (serum cytokines; 5 weeks) was “kept in similar values to controls or less; also recorded: maintained in an equal range to the control or lower”. For the same substance, the “serum IL-1β” value (serum cytokines; 10 weeks) was “kept in similar values to controls or less; also recorded: maintained in an equal range to the control or lower”, the “inflammatory cytokines in liver homogenate (cirrhosis high values)” value ([3]; 5 to 10 weeks) was “reduced” and the “liver homogenate IL-1β” value ([3]; five and ten weeks) was “decreased compared to cirrhotic control”. For the same substance, the “liver homogenate IL-4” value ([3]; five and ten weeks) was “decreased compared to cirrhotic control”, the “liver homogenate IL-6” value ([3]; five and ten weeks) was “regulated” and the “IL-10 (anti-inflammatory cytokine), liver homogenate” value ([3]; five and ten weeks, 50 mg/kg) was “increased”. The “Kupffer cells with inflammatory phenotype (M1) CD163+/CD11b/c+” value [4] was “decrease; also recorded: decreasing during the progression of cirrhosis and markedly with the treatment”, the “total macrophages (HIS36+/CD11b+) in the liver” value [4] was “increases” and the “arginase (Arginase I) protein in liver homogenate, Western blot” value (Arginase I) was “more amount of enzyme”. The “arginase (Arginase I) protein in liver homogenate, Western blot” value (Arginase I; 50 mg/kg) was “increased”.
